According to ChEMBL document CHEMBL1150341, “Anti-Helicobacter pylori activity of derivatives of the phthalide-containing antibacterial agents spirolaxine methyl ether, CJ-12,954, CJ-13,013, CJ-13,102, CJ-13,104, CJ-13,108 and CJ-13,015” (2008):
In brackets after ≈: the same amount, converted by molar mass.

Columns and labels:
Format in all cases: functional
Helicobacter pylori [1] = test: Antibacterial activity against Helicobacter pylori NCTC-11637 after 24 hrs; conditions: NCTC-11637, 24 h
Helicobacter pylori [2] = test: Antibacterial activity against Helicobacter pylori NCTC-11637 after 5 days by serial dilution method
Helicobacter pylori [3] = test: Antibacterial activity against Helicobacter pylori NCTC-11637 assessed as zone of inhibition at 0.5 ug/disk; conditions: read-out: IZ
Helicobacter pylori [4] = test: Antibacterial activity against Helicobacter pylori assessed NCTC-11637 as zone of inhibition at 0.02 ug/disk; conditions: read-out: IZ
Helicobacter pylori [5] = test: Antibacterial activity against Helicobacter pylori assessed NCTC-11637 as zone of inhibition at 0.01 ug/disk; conditions: read-out: IZ
Helicobacter pylori [6] = test: Antibacterial activity against Helicobacter pylori NCTC-11637 assessed as zone of inhibition at 500 ug/disk; conditions: read-out: IZ
Helicobacter pylori [7] = test: Antibacterial activity against Helicobacter pylori assessed NCTC-11637 as zone of inhibition at 2 ug/disk; conditions: read-out: IZ
Helicobacter pylori [8] = test: Antibacterial activity against Helicobacter pylori NCTC-11637 assessed as zone of inhibition at 10 ug/disk; conditions: read-out: IZ
[9] = Helicobacter pylori, 120 h, read-out: MBC

Row | Structure (SMILES) | MIC (Helicobacter pylori [1]) [µg/mL] | MBC (Helicobacter pylori [2]; [9]) [µg/mL] | also measured
1 | COc1cc(OC)c2c(c1)C(CCCCCCC1CCC3(CCC(C)O3)O1)OC2=O (stereo in doubt) | 0.02 (≈ 0.0478 µM) |  | MBC (Helicobacter pylori [2]): 0.2 µg/mL (≈ 0.478 µM)
2 | COc1cc(OC)c2c(c1)C(CCCCCCCCCC(CCC(C)=O)OC(C)=O)OC2=O (stereo not drawn) | 1.25 (≈ 2.7 µM) | 2.5 (≈ 5.4 µM) | zone of inhibition at 0.5 µg/disc (Helicobacter pylori [3]): 15 mm
3 | COc1cc(OC)c2c(c1)[C@@H](CCCCCC[C@H]1CC[C@@]3(CC[C@H](C)O3)O1)OC2=O | 0.3 (≈ 0.717 µM) | 0.3 (≈ 0.717 µM) | 
4 | COc1cc(OC)c2c(c1)C(CCCCCCC1CCC3(CCC(C)O3)O1)OC2=O (stereo in doubt; 5) |  |  | zone of inhibition at 0.02 µg/disc (Helicobacter pylori [4]): 15 mm; MBC (Helicobacter pylori [2]): 0.02 µg/mL (≈ 0.0478 µM)
5 | COc1cc(O)cc2c1C(=O)OC2CCCCCC1CCCC2(CCC(C)O2)O1 (stereo not drawn) [SPIROLAXINE] | 0.2 (≈ 0.494 µM) | > 2 | zone of inhibition at 0.01 µg/disc (Helicobacter pylori [5]): 15 mm
6 | COc1cc(OC)c2c(c1)[C@@H](CCCCC[C@H]1CCC[C@]3(CC[C@@H](C)O3)O1)OC2=O | 0.5 (≈ 1.19 µM) | 1 (≈ 2.39 µM) | 
7 | COc1cc(OC)c2ccn(CCCCCCCCCC(CCC(C)=O)OC(C)=O)c2c1 (stereo not drawn) | > 100 | > 100 | 
8 | COc1cc(OC)c2c(c1)C(CCCCCCCCCCCCC(C)O)OC2=O (stereo not drawn) | 12.5 (≈ 30.7 µM) | 50 (≈ 123 µM) | zone of inhibition at 500 µg/disc (Helicobacter pylori [6]): 15 mm
9 | COc1cc(OC)c2ccn(CCCCCCCCCCCCC(C)=O)c2c1 | 50 (≈ 129 µM) | 50 (≈ 129 µM) | 
10 | COc1cc(OC)c2c(c1)C(CCCCCCCCCC(=O)CCC(C)=O)OC2=O (stereo not drawn) | 2.5 (≈ 5.97 µM) | 5 (≈ 11.9 µM) | zone of inhibition at 2 µg/disc (Helicobacter pylori [7]): 15 mm
11 | COc1cc(OC)c2c(c1)C(CCCCCCCCCCCCC(C)=O)OC2=O (stereo not drawn) | 10 (≈ 24.7 µM) | 10 (≈ 24.7 µM) | zone of inhibition at 10 µg/disc (Helicobacter pylori [8]): 15 mm
12 | COc1cc(OC)c2ccn(CCCCCCCCC(C)=O)c2c1 | 5 (≈ 15.1 µM) | 10 (≈ 30.2 µM) | 
13 | COc1cc(OC)c2ccn(CCCC3CCCC4(CCCCO4)O3)c2c1 (stereo not drawn) | 20 (≈ 53.5 µM) | 40 (≈ 107 µM) | 
14 | COc1cc(OC)c2ccn(CCCCCCCCCC(=O)CCC(C)=O)c2c1 | 10 (≈ 24.9 µM) | 20 (≈ 49.8 µM) | 
15 | COc1cc(OC)c2c(c1)[C@@H](CCCCCC[C@H]1CC[C@]3(CC[C@H](C)O3)O1)OC2=O | 0.3 (≈ 0.717 µM) | 0.3 (≈ 0.717 µM) | 
16 | COc1cc(OC)c2c(c1)[C@@H](CCCCC[C@H]1CCC[C@]3(CC[C@H](C)O3)O1)OC2=O | 0.125 (≈ 0.299 µM) | 0.125 (≈ 0.299 µM) | 
17 | COc1cc(OC)c2ccn(CCCCCCCCCCCCC(C)O)c2c1 (stereo not drawn) | > 100 | > 100 | 
18 | COc1cc(OC)c2c(c1)[C@H](CCCCCC[C@H]1CC[C@]3(CC[C@H](C)O3)O1)OC2=O | 20 (≈ 47.8 µM) | 100 (≈ 239 µM) | 
19 | COc1cc(OC)c2c(c1)[C@H](CCCCCC[C@H]1CC[C@@]3(CC[C@H](C)O3)O1)OC2=O | 20 (≈ 47.8 µM) | 100 (≈ 239 µM) | 
